Assay results: the NIST ThermoML archive (doi:10.1016/j.tca.2005.10.007)
Numbers after ± are expanded uncertainties.

Settings: 101.33 kPa, Liquid, Vibrating tube method

CC(O)CN (configuration not stated) [1-amino-2-propanol]
mass density (278.16 K): 972.17 ± 0.49 kg/m3
mass density (278.65 K): 971.79 ± 0.49 kg/m3
mass density (279.14 K): 971.4 ± 0.49 kg/m3
mass density (279.65 K): 971.01 ± 0.49 kg/m3
mass density (280.15 K): 970.62 ± 0.49 kg/m3
mass density (280.65 K): 970.23 ± 0.49 kg/m3
mass density (281.15 K): 969.84 ± 0.49 kg/m3
mass density (281.65 K): 969.45 ± 0.49 kg/m3
mass density (282.15 K): 969.05 ± 0.49 kg/m3
mass density (282.65 K): 968.66 ± 0.49 kg/m3
mass density (283.15 K): 968.27 ± 0.49 kg/m3
mass density (283.65 K): 967.88 ± 0.49 kg/m3
mass density (284.15 K): 967.49 ± 0.49 kg/m3
mass density (284.65 K): 967.1 ± 0.49 kg/m3
mass density (285.15 K): 966.7 ± 0.49 kg/m3
mass density (285.65 K): 966.31 ± 0.49 kg/m3
mass density (286.15 K): 965.92 ± 0.49 kg/m3
mass density (286.64 K): 965.52 ± 0.49 kg/m3
mass density (287.15 K): 965.13 ± 0.49 kg/m3
mass density (287.65 K): 964.73 ± 0.49 kg/m3
mass density (288.15 K): 964.34 ± 0.49 kg/m3
mass density (288.65 K): 963.95 ± 0.49 kg/m3
mass density (289.15 K): 963.55 ± 0.49 kg/m3
mass density (289.65 K): 963.15 ± 0.49 kg/m3
mass density (290.15 K): 962.76 ± 0.49 kg/m3
mass density (290.65 K): 962.36 ± 0.49 kg/m3
mass density (291.15 K): 961.97 ± 0.49 kg/m3
mass density (291.64 K): 961.57 ± 0.49 kg/m3
mass density (292.15 K): 961.18 ± 0.49 kg/m3
mass density (292.65 K): 960.78 ± 0.49 kg/m3
mass density (293.15 K): 960.38 ± 0.49 kg/m3
mass density (293.64 K): 959.99 ± 0.49 kg/m3
mass density (294.14 K): 959.59 ± 0.49 kg/m3
mass density (294.64 K): 959.19 ± 0.49 kg/m3
mass density (295.15 K): 958.79 ± 0.49 kg/m3
mass density (295.65 K): 958.39 ± 0.49 kg/m3
mass density (296.15 K): 957.99 ± 0.49 kg/m3
mass density (296.65 K): 957.6 ± 0.49 kg/m3
mass density (297.15 K): 957.2 ± 0.49 kg/m3
mass density (297.64 K): 956.8 ± 0.49 kg/m3
mass density (298.15 K): 956.4 ± 0.49 kg/m3
mass density (298.65 K): 956 ± 0.49 kg/m3
mass density (299.15 K): 955.6 ± 0.49 kg/m3
mass density (299.64 K): 955.2 ± 0.49 kg/m3
mass density (300.14 K): 954.8 ± 0.49 kg/m3
mass density (300.64 K): 954.4 ± 0.49 kg/m3
mass density (301.15 K): 954 ± 0.49 kg/m3
mass density (301.65 K): 953.59 ± 0.49 kg/m3
mass density (302.14 K): 953.2 ± 0.5 kg/m3
mass density (302.65 K): 952.79 ± 0.49 kg/m3
mass density (303.15 K): 952.39 ± 0.49 kg/m3
mass density (303.64 K): 951.99 ± 0.49 kg/m3
mass density (304.15 K): 951.59 ± 0.49 kg/m3
mass density (304.65 K): 951.18 ± 0.49 kg/m3
mass density (305.15 K): 950.78 ± 0.48 kg/m3
mass density (305.64 K): 950.38 ± 0.48 kg/m3
mass density (306.15 K): 949.98 ± 0.48 kg/m3
mass density (306.65 K): 949.57 ± 0.48 kg/m3
mass density (307.15 K): 949.17 ± 0.48 kg/m3
mass density (307.64 K): 948.77 ± 0.48 kg/m3
mass density (308.15 K): 948.36 ± 0.48 kg/m3
mass density (308.65 K): 947.95 ± 0.48 kg/m3
mass density (309.15 K): 947.55 ± 0.48 kg/m3
mass density (309.65 K): 947.14 ± 0.48 kg/m3
mass density (310.15 K): 946.74 ± 0.48 kg/m3
mass density (310.65 K): 946.33 ± 0.48 kg/m3
mass density (311.15 K): 945.92 ± 0.48 kg/m3
mass density (311.64 K): 945.52 ± 0.48 kg/m3
mass density (312.15 K): 945.11 ± 0.48 kg/m3
mass density (312.64 K): 944.7 ± 0.5 kg/m3
mass density (313.15 K): 944.3 ± 0.48 kg/m3
mass density (313.65 K): 943.89 ± 0.48 kg/m3
mass density (314.15 K): 943.48 ± 0.48 kg/m3
mass density (314.65 K): 943.07 ± 0.48 kg/m3
mass density (315.15 K): 942.66 ± 0.48 kg/m3
mass density (315.65 K): 942.25 ± 0.48 kg/m3
mass density (316.15 K): 941.84 ± 0.48 kg/m3
mass density (316.65 K): 941.43 ± 0.48 kg/m3
mass density (317.15 K): 941.03 ± 0.48 kg/m3
mass density (317.65 K): 940.61 ± 0.48 kg/m3
mass density (318.15 K): 940.2 ± 0.48 kg/m3
mass density (318.65 K): 939.79 ± 0.48 kg/m3
mass density (319.14 K): 939.38 ± 0.48 kg/m3
mass density (319.65 K): 938.96 ± 0.48 kg/m3
mass density (320.15 K): 938.55 ± 0.48 kg/m3
mass density (320.64 K): 938.14 ± 0.48 kg/m3
mass density (321.15 K): 937.72 ± 0.48 kg/m3
mass density (321.65 K): 937.31 ± 0.48 kg/m3
mass density (322.15 K): 936.9 ± 0.48 kg/m3
mass density (322.65 K): 936.49 ± 0.48 kg/m3
mass density (323.15 K): 936.08 ± 0.48 kg/m3
mass density (323.65 K): 935.66 ± 0.48 kg/m3
mass density (324.15 K): 935.25 ± 0.48 kg/m3
mass density (324.65 K): 934.83 ± 0.48 kg/m3
mass density (325.15 K): 934.42 ± 0.48 kg/m3
mass density (325.65 K): 934.01 ± 0.48 kg/m3
mass density (326.15 K): 933.59 ± 0.48 kg/m3
mass density (326.65 K): 933.18 ± 0.48 kg/m3
mass density (327.15 K): 932.76 ± 0.48 kg/m3
mass density (327.65 K): 932.35 ± 0.48 kg/m3
mass density (328.15 K): 931.93 ± 0.48 kg/m3
mass density (328.66 K): 931.51 ± 0.48 kg/m3
mass density (329.15 K): 931.09 ± 0.48 kg/m3
mass density (329.66 K): 930.68 ± 0.48 kg/m3
mass density (330.16 K): 930.26 ± 0.48 kg/m3
mass density (330.66 K): 929.84 ± 0.48 kg/m3
mass density (331.15 K): 929.42 ± 0.48 kg/m3
mass density (331.66 K): 929 ± 0.48 kg/m3
mass density (332.16 K): 928.58 ± 0.48 kg/m3
mass density (332.66 K): 928.16 ± 0.48 kg/m3
mass density (333.16 K): 927.74 ± 0.48 kg/m3
mass density (333.66 K): 927.31 ± 0.48 kg/m3
mass density (334.16 K): 926.89 ± 0.47 kg/m3
mass density (334.66 K): 926.47 ± 0.47 kg/m3
mass density (335.16 K): 926.05 ± 0.47 kg/m3
mass density (335.66 K): 925.63 ± 0.47 kg/m3
mass density (336.16 K): 925.2 ± 0.47 kg/m3
mass density (336.66 K): 924.78 ± 0.47 kg/m3
mass density (337.16 K): 924.36 ± 0.47 kg/m3
mass density (337.66 K): 923.93 ± 0.47 kg/m3
mass density (338.16 K): 923.5 ± 0.47 kg/m3
mass density (338.66 K): 923.08 ± 0.47 kg/m3
mass density (339.16 K): 922.65 ± 0.47 kg/m3
mass density (339.66 K): 922.23 ± 0.47 kg/m3
mass density (340.16 K): 921.8 ± 0.47 kg/m3
mass density (340.66 K): 921.38 ± 0.47 kg/m3
mass density (341.16 K): 920.95 ± 0.47 kg/m3
mass density (341.66 K): 920.52 ± 0.47 kg/m3
mass density (342.16 K): 920.09 ± 0.47 kg/m3
mass density (342.66 K): 919.66 ± 0.47 kg/m3
mass density (343.16 K): 919.23 ± 0.47 kg/m3
mass density (343.66 K): 918.8 ± 0.5 kg/m3
mass density (344.16 K): 918.37 ± 0.47 kg/m3
mass density (344.66 K): 917.94 ± 0.47 kg/m3
mass density (345.16 K): 917.51 ± 0.47 kg/m3
mass density (345.66 K): 917.08 ± 0.47 kg/m3
mass density (346.16 K): 916.65 ± 0.47 kg/m3
mass density (346.66 K): 916.21 ± 0.47 kg/m3
mass density (347.16 K): 915.78 ± 0.47 kg/m3
mass density (347.66 K): 915.35 ± 0.47 kg/m3
mass density (348.16 K): 914.92 ± 0.47 kg/m3
mass density (348.66 K): 914.48 ± 0.47 kg/m3
mass density (349.16 K): 914.05 ± 0.47 kg/m3
mass density (349.66 K): 913.61 ± 0.47 kg/m3
mass density (350.16 K): 913.18 ± 0.47 kg/m3
mass density (350.66 K): 912.74 ± 0.47 kg/m3
mass density (351.16 K): 912.3 ± 0.5 kg/m3
mass density (351.66 K): 911.87 ± 0.47 kg/m3
mass density (352.16 K): 911.43 ± 0.47 kg/m3
mass density (352.66 K): 910.99 ± 0.47 kg/m3
mass density (353.16 K): 910.55 ± 0.47 kg/m3
mass density (353.66 K): 910.12 ± 0.47 kg/m3
mass density (354.16 K): 909.68 ± 0.47 kg/m3
mass density (354.66 K): 909.23 ± 0.47 kg/m3
mass density (355.16 K): 908.8 ± 0.5 kg/m3
mass density (355.66 K): 908.35 ± 0.47 kg/m3
mass density (356.16 K): 907.91 ± 0.47 kg/m3
mass density (356.66 K): 907.47 ± 0.47 kg/m3
mass density (357.16 K): 907.03 ± 0.47 kg/m3
mass density (357.66 K): 906.59 ± 0.47 kg/m3
mass density (358.16 K): 906.14 ± 0.47 kg/m3
mass density (358.66 K): 905.7 ± 0.5 kg/m3
mass density (359.16 K): 905.26 ± 0.47 kg/m3
mass density (359.66 K): 904.81 ± 0.47 kg/m3
mass density (360.16 K): 904.36 ± 0.47 kg/m3
mass density (360.65 K): 903.92 ± 0.47 kg/m3
mass density (361.16 K): 903.47 ± 0.47 kg/m3
mass density (361.66 K): 903.03 ± 0.47 kg/m3
mass density (362.16 K): 902.58 ± 0.47 kg/m3
mass density (362.66 K): 902.13 ± 0.47 kg/m3
mass density (363.15 K): 901.68 ± 0.46 kg/m3
mass density (363.16 K): 901.69 ± 0.46 kg/m3
